The results in this text go back to patent EP0244595A2, “Dihydropyridine derivatives, process for their preparation and their use as pharmaceutical compounds” (Byk Gulden Lomberg Chemische Fabrik GmbH, priority 1986, dated 1987).

Counter-ions that a name gives are not always drawn. Like-named read-outs stand apart in the source and are kept apart here.

The experiment concerns genetisch hypertonen Ratten. Put plainly: Antihypertensive effect (systolic blood pressure, tail cuff) in spontaneously hypertensive rats after oral dosing. The experiment is classed as in vivo, Ratte. To be noted: Rattus norvegicus; for change in vivo at 25 µmol/kg: 25 µmol/kg p.o. once daily on four consecutive days; for change in vivo at 10 µmol/kg: 10 µmol/kg p.o. once daily on four consecutive days. From the text: Die antihypertensive Wirksamkeit der erfindungsgemäßen Verbindungen kann am Modell der spontan hypertonen Ratte nachgewiesen werden.
Zur Bestimmung der antihypertensiven Wirkung werden die unten aufgeführten Verbindungen in den angegebenen Dosen an vier aufeinander folgenden Tagen an je 6 männlichen Ratten (Stamm SHR/N/Ibm/Bm, 250-350 g) mit genetisch bedingtem Hochdruck (systolischer Blutdruck > 180 mmHg) täglich einmal mittels Schlundsonde verabfolgt. Die Messung des Blutdrucks erfolgt jeweils 6 und gegebenenfalls 2 oder 24 Studnen nach Substanzgabe.
Die Blutdruckmessung wird in einer Wärmekammer bei 36°C vorgenommen, um eine bessere Durchblutung der Schwanzarterie zu erreichen. Hierzu werden die Tiere in perforierte Lochblechkäfige verbracht und 20 - 40 Min. nach Beginn der Aufwärmung gemessen. Zur Messung des systolischen arteriellen Drucks wird eine ringförmige Manschette mit aufblasbarer Gummimembran zur Unterbindung der Durchblutung und ein ringförmiger Piezokristallaufnehmer zur Erfassung der Pulswellen auf den Schwanz aufgeschoben. Nach erfolgter Unterbindung des Blutstroms in der Schwanzarterie wird der Manschettendruck kontinuierlich reduziert. Die Wiederkehr der Pulswellen bei Druckablassen wird automatisch als systolischer Blutdruck erkannt und ausgedruckt (Bühler, R. er al." Microprocessor-based automation of blood pressure measurement in the conscious rat. Proceedings of the 4th international symposium on rats with spontaneous hypertension and related studies, Rascher, R. et al. (Eds.), Schattauer Verlag, Stuttgart, New York, 1982, S. 410-413). Pulssignale und Druckverlauf werden zur Auswertung graphisch aufgezeichnet.
Zur Gewöhnung an den Meßvorgang werden die Tiere vor Substanzprüfung 14 Tage trainiert. In der zweiten Trainingswoche werden Blutdruck-Vorwerte erhoben. Tiergruppen, die Substanz erhalten, werden gegen eine Kontrollgruppe geprüft.
In der anschließenden Tabelle werden die untersuchten Verbindungen durch laufende Nummern gekennzeichnet, die mit den jewiligen Beispielnummern übereinstimmen.
Tabelle I gibt für die Vertreter der erfindungsgemäßen Verbindungen die prozentuale Senkung des Blutdrucks (BP) nach oraler Verabreichung bei der Ratte wieder.

Setting [1] is: 2h after dosing, mean of days 1+4, male SHR/N/Ibm/Bm rats, N=6, read-out: BP (% Änderung vs. Kontrolle), Mittelwert für Meßzeitpunkte: Stunden nach Gabe (Tage) 2h (1.+4.Tag).
[2] abbreviates: 6h after dosing, mean of days 1-4, male SHR/N/Ibm/Bm rats, N=6, read-out: BP (% Änderung vs. Kontrolle), Mittelwert für Meßzeitpunkte: Stunden nach Gabe (Tage) 6h (1.-4.Tag).
[3] abbreviates: 24h after dosing, mean of days 1+3, male SHR/N/Ibm/Bm rats, N=6, read-out: BP (% Änderung vs. Kontrolle), Mittelwert für Meßzeitpunkte: Stunden nach Gabe (Tage) 24h (1.+3.Tag).

On to `CC1=C(C(=O)OCCN2CCCCC2)C(c2cccc([N+](=O)[O-])c2)C(C(=O)O[C@@H]2C[C@H](C)CC[C@H]2C(C)C)=C(C)N1` (single isomer, unassigned) [Beispiel 23, 1,4-Dihydro-2,6-dimethyl-4-(3-nitrophenyl)-pyridin-3,5-dicarbonsäure-3-(-)-menthyl-5-[2-(1-piperidinyl)-ethyl]-ester-fumarat], for which the change in vivo at 25 µmol/kg is, setting by setting: under setting [1], -17%; under setting [2], -26%; under setting [3], 4%.

With `CC1=C(C(=O)OCCCN2CCN(c3cccc(C(F)(F)F)c3)CC2)C(c2cccc([N+](=O)[O-])c2)C(C(=O)O[C@@H]2C[C@H](C)CC[C@H]2C(C)C)=C(C)N1` (single isomer, unassigned) [Beispiel 14, 1,4-Dihydro-2,6-dimethyl-4-(3-nitrophenyl)-pyridin-3,5-dicarbonsäure-3-(-)-menthyl-5-{3-[4-(3-trifluormethylphenyl}-1-piperazinyl]-propyl}-ester-fumarat], the change in vivo at 25 µmol/kg by setting is: under setting [1], -42%; under setting [2], -43%; under setting [3], -21%.

As for `CCOc1ccccc1N1CCN(CCCOC(=O)C2=C(C)NC(C)=C(C(=O)O[C@@H]3C[C@H](C)CC[C@H]3C(C)C)C2c2cccc(Cl)c2Cl)CC1` (single isomer, unassigned) [Beispiel 22, 4-(2,3-Dichlorphenyl)-1,4-dihydro-2,6-dimethyl-pyridin-3,5-dicarbonsäure-3-(-)-menthyl-5-{3-[4-(2-ethoxyphenyl)-1-piperazinyl]-propyl}ester-fumarat], the change in vivo at 25 µmol/kg is -46% under setting [1], -55% under setting [2] and -43% under setting [3].

`COc1ccccc1N1CCN(CCOC(=O)C2=C(C)NC(C)=C(C(=O)O[C@@H]3C[C@H](C)CC[C@H]3C(C)C)C2c2cccc([N+](=O)[O-])c2)CC1` (single isomer, unassigned) [Beispiel 9, 1,4-Dihydro-2,6-dimethyl-4-(3-nitrophenyl)-pyridin-3,5-dicarbonsäure-3-(-)-menthyl-5-{2-[4-(2-methoxyphenyl)1-piperazinyl]-ethyl}-ester]: the change in vivo at 10 µmol/kg runs as follows: under setting [1], -22%; under setting [2], -32%; under setting [3], -4%.

In the case of `CC1=C(C(=O)OCCCN2CCN(c3ccc(C)cc3C)CC2)C(c2cccc([N+](=O)[O-])c2)C(C(=O)O[C@@H]2C[C@H](C)CC[C@H]2C(C)C)=C(C)N1` (single isomer, unassigned) [Beispiel 18, 1,4-Dihydro-2,6-dimethyl-4-(3-nitrophenyl)-pyridin-3,5-dicarbonsäure-3-(-)-menthyl-5-{3-[4-(2,4-dimethylphenyl)-1-piperazinyl]-propyl}-ester-fumarat], the change in vivo at 10 µmol/kg was -15% under setting [1], -18% under setting [2] and -3% under setting [3].

On to `COc1ccccc1N1CCN(CCCOC(=O)C2=C(C)NC(C)=C(C(=O)O[C@@H]3C[C@H](C)CC[C@H]3C(C)C)C2c2cccc([N+](=O)[O-])c2)CC1` (single isomer, unassigned) [Beispiel 3b, 1,4-Dihydro-2,6-dimethyl-4-(3-nitrophenyl)-pyridin-3,5-dicarbonsäure-3-(-)-menthyl-5-{3-[4-(2-methoxyphenyl)-1-piperazinyl]-propyl}-ester-fumarat], for which the change in vivo at 25 µmol/kg reads like this: under setting [1], -23%; under setting [2], -36%; under setting [3], -17%.

On to `CC1=C(C(=O)OCCCN2CCN(c3ccccn3)CC2)C(c2cccc([N+](=O)[O-])c2)C(C(=O)O[C@@H]2C[C@H](C)CC[C@H]2C(C)C)=C(C)N1` (single isomer, unassigned) [Beispiel 12, 1,4-Dihydro-2,6-dimethyl-4-(3-nitrophenyl)-pyridin-3,5-dicarbonsäure-3-(-)-menthyl-5-{3-[4-(2-pyridyl)-1-piperazinyl]-propyl}-ester-fumarat], for which the change in vivo at 10 µmol/kg runs as follows: under setting [1], -17%; under setting [2], -20%; under setting [3], -1%.

Turning to `COc1cccc(N2CCN(CCCOC(=O)C3=C(C)NC(C)=C(C(=O)O[C@@H]4C[C@H](C)CC[C@H]4C(C)C)C3c3cccc([N+](=O)[O-])c3)CC2)c1` (single isomer, unassigned) [Beispiel 15, 1,4-Dihydro-2,6-dimethyl-4-(3-nitrophenyl)-pyridin-3,5-dicarbonsäure-3-(-)-menthyl-5-{3-[4-(3-methoxyphenyl)-1-piperazinyl]-propyl}-ester-fumarat], the change in vivo at 10 µmol/kg is, setting by setting: under setting [1], -14%; under setting [2], -7%; under setting [3], -4%.

On to `CC1=C(C(=O)OCCCN2CCC(c3ccccc3)(c3ccccc3)CC2)C(c2cccc([N+](=O)[O-])c2)C(C(=O)O[C@@H]2C[C@H](C)CC[C@H]2C(C)C)=C(C)N1` (stereo partly drawn) [Beispiel 1a, 1,4-Dihydro-2,6-dimethyl-4-(3-nitrophenyl)-pyridin-3,5-dicarbonsäure-3-(-)-menthyl-5-[3-(4,4-diphenylpiperidyl-1)-propyl]-ester-hydrochlorid], for which the change in vivo at 25 µmol/kg runs as follows: under setting [1], -24%; under setting [2], -20%; under setting [3], -15%.

Regarding `COc1ccccc1N1CCN(CCCOC(=O)C2=C(C)NC(C)=C(C(=O)O[C@@H]3C[C@H](C)CC[C@H]3C(C)C)C2c2cccc(Cl)c2Cl)CC1` (single isomer, unassigned) [Beispiel 21, 4-(2,3-Dichlorphenyl)-1,4-dihydro-2,6-dimethyl-pyridin-3,5-dicarbonsäure-3-(-)-menthyl-5-{3-[4-(2-methoxyphenyl)-1-piperazinyl]-propyl}ester-fumarat], the change in vivo at 25 µmol/kg under setting [1] was -50%, the change in vivo at 25 µmol/kg under setting [2] was -51% and the change in vivo at 25 µmol/kg under setting [3] is -46%.

As to `CC1=C(C(=O)OCCCN2CCN(c3ccccc3C)CC2)C(c2cccc([N+](=O)[O-])c2)C(C(=O)O[C@@H]2C[C@H](C)CC[C@H]2C(C)C)=C(C)N1` (single isomer, unassigned) [Beispiel 17, 1,4-Dihydro-2,6-dimethyl-4-(3-nitrophenyl)-pyridin-3,5-dicarbonsäure-3-(-)-menthyl-5-{3-[4-(2-tolyl)-1-piperazinyl]-propyl}-ester-fumarat], the change in vivo at 10 µmol/kg by setting is: under setting [1], -17%; under setting [2], -14%; under setting [3], -3%.
